The source made the active and inactive calls. The rule behind the calls is not given here.
Legend:
[1] = target: Prostaglandin G/H synthase 1 (Homo sapiens) (UniProt P23219); assay: Inhibition of human COX1 from platelet microsomes
[2] = target: T1, Prostaglandin G/H synthase 2 (Homo sapiens) (UniProt P35354); assay: Inhibition of human recombinant COX2 expressed in baculovirus infected SF21 cell at 25 uM
T1 sequence (whole entry): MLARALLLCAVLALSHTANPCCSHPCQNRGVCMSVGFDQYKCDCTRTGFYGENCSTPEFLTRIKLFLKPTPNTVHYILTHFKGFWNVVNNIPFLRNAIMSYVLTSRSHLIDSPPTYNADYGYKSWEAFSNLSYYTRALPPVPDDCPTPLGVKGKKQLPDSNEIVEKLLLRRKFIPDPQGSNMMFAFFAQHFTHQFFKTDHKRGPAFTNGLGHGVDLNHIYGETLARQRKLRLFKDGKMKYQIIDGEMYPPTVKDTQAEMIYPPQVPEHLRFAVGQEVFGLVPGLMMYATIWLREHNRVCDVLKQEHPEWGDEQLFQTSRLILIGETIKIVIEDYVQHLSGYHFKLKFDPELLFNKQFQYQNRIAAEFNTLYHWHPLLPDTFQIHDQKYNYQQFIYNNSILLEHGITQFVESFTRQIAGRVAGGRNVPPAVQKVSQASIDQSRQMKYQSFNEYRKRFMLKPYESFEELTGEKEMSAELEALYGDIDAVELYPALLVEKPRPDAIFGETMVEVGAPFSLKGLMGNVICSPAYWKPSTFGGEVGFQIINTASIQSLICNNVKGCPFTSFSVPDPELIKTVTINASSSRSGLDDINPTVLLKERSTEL

[3] = target: T1, Prostaglandin G/H synthase 2 (Homo sapiens); assay: Inhibition of human recombinant COX2 expressed in baculovirus infected SF21 cell at 100 uM
[4] = target: T2, Prostaglandin G/H synthase 2 (Homo sapiens, UniProt P35354); assay: Inhibition of human recombinant COX2 expressed in baculovirus infected SF21 cell; format: cell-based
T2 sequence (P35354 whole entry): T1 sequence (whole entry)

Prostaglandin G/H synthase 1 (Homo sapiens), sequence (P23219 whole entry): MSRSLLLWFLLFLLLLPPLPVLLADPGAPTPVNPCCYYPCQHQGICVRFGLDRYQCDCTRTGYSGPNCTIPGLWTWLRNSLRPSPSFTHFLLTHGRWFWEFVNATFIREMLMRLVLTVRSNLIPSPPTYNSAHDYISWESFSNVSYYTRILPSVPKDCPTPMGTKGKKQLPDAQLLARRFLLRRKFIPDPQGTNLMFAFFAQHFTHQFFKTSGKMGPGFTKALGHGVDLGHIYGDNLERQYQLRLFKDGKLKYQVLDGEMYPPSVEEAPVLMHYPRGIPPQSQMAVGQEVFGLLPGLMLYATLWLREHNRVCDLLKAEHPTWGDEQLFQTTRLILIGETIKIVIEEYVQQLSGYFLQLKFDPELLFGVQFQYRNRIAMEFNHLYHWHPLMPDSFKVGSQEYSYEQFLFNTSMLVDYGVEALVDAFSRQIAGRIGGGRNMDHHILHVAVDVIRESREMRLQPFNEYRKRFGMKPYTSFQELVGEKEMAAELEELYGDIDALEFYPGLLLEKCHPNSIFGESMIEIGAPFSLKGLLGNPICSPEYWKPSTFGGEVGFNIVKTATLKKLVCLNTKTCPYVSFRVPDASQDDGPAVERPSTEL

With `CS(=O)(=O)c1ccc(C2=NN(C(N)=S)C(c3ccc(OCc4ccccc4)cc3)C2)cc1` (stereo unspecified) the inhibition [1] was “inactive” and the inhibition [2] was “inactive”.

`CS(=O)(=O)c1ccc(C2=NN(C(N)=S)C(c3ccccc3OCc3ccccc3)C2)cc1` (stereo unspecified) was tested, and the inhibition [1] was “inactive” and the inhibition [2] was “inactive”.

`CC(=O)N1N=C(c2ccc(S(C)(=O)=O)cc2)CC1c1ccccc1` (stereo unspecified) was tested, and the inhibition [1] was “inactive” and the inhibition [3] was “inactive”.

`Cc1ccc(C2CC(c3ccc(S(C)(=O)=O)cc3)=NN2C(N)=S)cc1` (stereo unspecified) was tested, and the IC50 [4] was 31.9 µM and the inhibition [1] was “inactive”.

For `CS(=O)(=O)c1ccc(C2=NN(C(N)=S)C(c3ccc(F)cc3)C2)cc1` (stereo unspecified), the inhibition [1] was “inactive” and the inhibition [3] was “inactive”.

In the case of `COc1ccc(C2CC(c3ccc(S(C)(=O)=O)cc3)=NN2C(N)=S)cc1` (stereo unspecified), the inhibition [1] is reported as “inactive” and the inhibition [2] is reported as “inactive”.

`CC(=O)N1N=C(c2ccc(S(C)(=O)=O)cc2)CC1c1ccc(C)cc1` (stereo unspecified) was tested, and the IC50 [4] was 6.77 µM and the inhibition [1] was “inactive”.

For `CC(=O)N1N=C(c2ccc(S(C)(=O)=O)cc2)CC1c1ccc(F)cc1` (stereo unspecified), the IC50 [4] was 19.6 µM and the inhibition [1] was “inactive”.

With `CS(=O)(=O)c1ccc(C2=NN(C(N)=S)C(c3ccccc3)C2)cc1` (stereo unspecified) the IC50 [4] was 50.3 µM and the inhibition [1] was “inactive”.

With `CS(=O)(=O)c1ccc(C2=NN(C(N)=S)C(c3cccc(OCc4ccccc4)c3)C2)cc1` (stereo unspecified) the inhibition [1] was “inactive” and the inhibition [2] was “inactive”.

In the case of `CC(=O)N1N=C(c2ccc(S(C)(=O)=O)cc2)CC1c1ccc(C(F)(F)F)cc1` (stereo unspecified), the IC50 [4] is reported as 19.8 µM and the inhibition [1] is reported as “inactive”.

In the case of `COc1ccc(C2CC(c3ccc(S(C)(=O)=O)cc3)=NN2C(C)=O)cc1` (stereo unspecified), the IC50 [4] is reported as 7.61 µM and the inhibition [1] is reported as “inactive”.

With `CC(=O)N1N=C(c2ccc(S(C)(=O)=O)cc2)CC1c1ccc(Cl)cc1` (stereo unspecified) the IC50 [4] was 21.7 µM and the inhibition [1] was “inactive”.

For `CC(=O)N1N=C(c2ccc(S(C)(=O)=O)cc2)CC1c1ccccc1OCc1ccccc1` (stereo unspecified), the IC50 [4] was 3.2 µM and the inhibition [1] was “inactive”.

`CC(=O)N1N=C(c2ccc(S(C)(=O)=O)cc2)CC1c1cccc(OCc2ccccc2)c1` (stereo unspecified) was tested, and the inhibition [1] was “inactive” and the inhibition [3] was “inactive”.

`CS(=O)(=O)c1ccc(C2=NN(C(N)=S)C(c3ccc(C(F)(F)F)cc3)C2)cc1` (stereo unspecified) was tested, and the inhibition [1] was “inactive” and the inhibition [2] was “inactive”.

With `CC(=O)N1N=C(c2ccc(S(C)(=O)=O)cc2)CC1c1ccc(OCc2ccccc2)cc1` (stereo unspecified) the inhibition [1] was “inactive” and the inhibition [3] was “inactive”.

With `CS(=O)(=O)c1ccc(C2=NN(C(N)=S)C(c3ccc(Cl)cc3)C2)cc1` (stereo unspecified) the IC50 [4] was 9.35 µM and the inhibition [1] was “inactive”.

From ChEMBL document CHEMBL1629710, “Synthesis and biological evaluation of N-substituted-3,5-diphenyl-2-pyrazoline derivatives as cyclooxygenase (COX-2) inhibitors” (Eur J Med Chem, 2010)
